Experimental data: patent US20090036461A1, “Use of Azabicyclo Hexane Derivatives” (priority 2005, published 2009)
“Also recorded” adds a separate entry of the source.

How the values were obtained:
D3 = D3 (Homo sapiens, UniProt P35462); experiment: functional pKi (fpKi) at D3, comparison of separated enantiomers; type: biochemical; settings: difference in fpKi between the two separated enantiomers of the same example
[1] = tested on: Female Sprague Dawley rats; experiment: stress-induced food intake, animal model for binge eating (diet restriction cycles + foot shock); type: in vivo
Description: Dieting is the strongest predictor of overeating in response of stress. In this specific case, binge eating or binge/purge behaviours are recognized as key features of the human diseases (bulimia nervosa or anorexia, respectively). Two critical factors seem to modulate the production of binge eating: a history of food restriction and access of high palatable (HP) food (dense in fat and sugar) and the interaction with environmental stress. Based on these premises, preclinical models can be developed to explore the potential therapeutic effect of test compounds on binge eating. One model which may be used is described by Hagan et al (Hagan, M. M. et al., Physiol and Beh 77 (2002): 45-54).
Slight modifications such as those below may be applied to their model, for example: • Instrument to deliver FS: Passive Avoidance (Gemini Avoidance System, Coubourn Instrument, San Diego) may be used instead of the 4 closed runways with metal bar floors (Coulbourn Instruments Habitest System, Allentown, Pa.). • Refeeding: 4 days instead of 6 days • HP food: Baiocchi® (Barilla) instead of Oreo® biscuits • For the submission of the animals to the pharmacological treatment, see: Placidi et al., Int J Eat Disord 2004 36 (3) 328-41
Based on the model by Hagan et al, and incorporating the above changes, a model for binge eating may be set up as follows. Female Sprague Dawley rats (7 weeks old) can be single housed at 21±1 C and under a 12 h/12 h light/dark cycle (dark phase: 18:00-06:00) for all the period of the experiment. Before beginning, rats can be habituated to these conditions for 7 days. The rats can then be divided into 2 groups (16 animals/group). One group may take food ad lib (non restricted group: NR) for the 24 days of the experiment, while the other (Restricted Group: R) may receive a restricted diet (66% of the quantity food intake that the other control group was eating) during 4 days, and eat ad lib for the following 4 days. This cycle can be repeated 3 times. Following the last day of refeeding, each group can be subdivided in two. Eight animals of group NR and 8 animals of group R can receive a stress stimulus (4 Foot Shocks (FS) of 0.6 mA separated by 15 sec intervals) while the other 2 subgroups can remain in the same cage where FS is delivered for the same period of time, but without receiving the FS (no shocked: NS). The 4 groups are S/NR, NS/NR, S/R and NS/R. Immediately following time in the shock apparatus, rats can be submitted to a pharmacological treatment (administration of the test compound or of the vehicle) and then be returned to the animal colony. A pre-measured amount of pellets or HP food (Baiocchie) can be put in each cage, and food intake measured after 4 h. Food intake can be expressed in kcal.
Rationale—The effects of the title compound, prepared in an analogous way with Example 123, were tested in the animal model discussed above. The aim of the present study was to assess the effect of this compound in animals that received 3 cycles of diet (restricted:R) and stress (shocked) conditions similar to binge eating in humans.
Methods—Female Sprague Dawley rats (7-week old) were single housed at 21±1° C. and under a 12 h/12 h light/dark cycle (dark phase: 18:00-06:00) for all the entire experimental period. Rats received a restricted diet (66% of the food intake vs. control group) during 4 days, and ate ad libitum for the following 4 days. This cycle was repeated 3 times. Additionally, two other groups were eating ad libitum (not restricted: NR) and received the shock (NR/S). Following the last day of refeeding, the animals received a stress stimulus (4 Foot Shocks (FS) of 0.6 mA separated by 15 sec intervals) and received vehicle or the title compound (0.03, 0.3 or 3 mg/kg i.p.) immediately after the shock. These were the S/R (shocked/Restricted) rats. The S/NR rats received the shock and vehicle or the title compound (prepared in an analogous way with Example 123; 3 mg/kg i.p.) in the same way as the S/R groups. […]

[2] = S/NR (shocked/not restricted) rats, 3 mg/kg i.p. after foot shock
[3] = S/R (shocked/restricted) rats, 0.03 mg/kg i.p. after foot shock
[4] = S/R (shocked/restricted) rats, 0.3 mg/kg i.p. after foot shock
[5] = S/R (shocked/restricted) rats, 3 mg/kg i.p. after foot shock

Sequence of D3 (P35462 whole entry): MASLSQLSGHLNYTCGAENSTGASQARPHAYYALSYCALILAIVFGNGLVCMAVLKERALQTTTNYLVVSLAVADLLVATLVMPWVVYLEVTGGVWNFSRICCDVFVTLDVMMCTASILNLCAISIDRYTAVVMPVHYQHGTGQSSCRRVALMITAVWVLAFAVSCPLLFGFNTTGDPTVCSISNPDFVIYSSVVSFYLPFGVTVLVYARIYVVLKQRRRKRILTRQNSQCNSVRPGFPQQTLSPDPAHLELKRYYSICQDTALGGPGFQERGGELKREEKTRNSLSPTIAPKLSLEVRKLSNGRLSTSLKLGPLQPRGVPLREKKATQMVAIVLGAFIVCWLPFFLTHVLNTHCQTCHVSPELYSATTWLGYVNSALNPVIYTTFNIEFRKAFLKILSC

SMILES	fpKi (D3) higher than the other enantiomer (D3) [log-unit]	also measured
COc1ccc([C@]23C[C@H]2CN(CCCSc2nnc(-c4cccc5nc(C)ccc45)n2C)C3)cc1 (single isomer, unassigned) [Example 1 Enantiomer 1]	> 1	
Cc1ccc2c(-c3nnc(SCCCN4C[C@@H]5C[C@]5(c5ccc(Br)cc5)C4)n3C)cccc2n1 (single isomer, unassigned) [Example 2 Enantiomer 2]	> 1	
Cc1ccc2c(-c3nnc(SCCCN4C[C@@H]5C[C@]5(c5ccccc5)C4)n3C)cccc2n1 (single isomer, unassigned) [Example 3 Enantiomer 2]	> 1	
Cc1ccc2c(-c3nnc(SCCCN4C[C@@H]5C[C@]5(c5ccc(Cl)c(Cl)c5)C4)n3C)cccc2n1 (single isomer, unassigned) [Example 4 Enantiomer 1]	> 0.6	
Cc1ccc2c(-c3nnc(SCCCN4C[C@@H]5C[C@]5(c5ccc(C(C)(C)C)cc5)C4)n3C)cccc2n1 (single isomer, unassigned) [Example 5 Enantiomer 2]	> 0.9	
Cc1ncoc1-c1nnc(SCCCN2C[C@@H]3C[C@]3(c3ccc(Br)cc3)C2)n1C (single isomer, unassigned) [Example 9 Enantiomer 1]	> 1	
COc1ccc([C@]23C[C@H]2CN(CCCSc2nnc(-c4ocnc4C)n2C)C3)cc1C(C)=O (single isomer, unassigned) [Example 19 Enantiomer 1]	> 1	
Cc1ncoc1-c1nnc(SCCCN2C[C@@H]3C[C@]3(c3ccc(Cl)cc3)C2)n1C (single isomer, unassigned) [Example 20 Enantiomer 1]	> 1	
Cc1ncoc1-c1nnc(SCCCN2C[C@@H]3C[C@]3(c3ccc(F)cc3)C2)n1C (single isomer, unassigned) [Example 21 Enantiomer 1]	> 1	
Cc1ncoc1-c1nnc(SCCCN2C[C@]3(C)C[C@@]3(c3cccc(Cl)c3)C2)n1C (single isomer, unassigned) [Example 22 Enantiomer 1]	> 1	
Cc1ncoc1-c1nnc(SCCCN2C[C@@H]3C[C@]3(c3cccc(F)c3)C2)n1C (single isomer, unassigned) [Example 23 Enantiomer 1]	> 1	
COc1cccc([C@]23C[C@H]2CN(CCCSc2nnc(-c4ocnc4C)n2C)C3)c1 (single isomer, unassigned) [Example 24 Enantiomer 1]	> 1	
Cn1c(SCCCN2C[C@@H]3C[C@]3(c3ccc(OC(F)(F)F)cc3)C2)nnc1C1CCOCC1 (single isomer, unassigned) [Example 33 Enantiomer 1]	> 1	
Cc1ncoc1-c1nnc(SCCCN2C[C@@H]3C[C@]3(c3cc(C(F)(F)F)ccc3F)C2)n1C (single isomer, unassigned) [Example 36 Enantiomer 2]	> 1	
Cc1ncoc1-c1nnc(SCCCN2C[C@]3(C)C[C@@]3(c3ccc(C(F)(F)F)c(F)c3)C2)n1C (single isomer, unassigned) [Example 61 Enantiomer 1]	> 2	
CCC(=O)c1cc([C@]23C[C@H]2CN(CCCSc2nnc(-c4ocnc4C)n2C)C3)ccc1OC (single isomer, unassigned) [Example 71 Enantiomer 1]	> 1	
Cc1nc2cc([C@]34C[C@H]3CN(CCCSc3nnc(-c5ocnc5C)n3C)C4)ccc2s1 (single isomer, unassigned) [Example 72 Enantiomer 1]	> 1	
Cc1ncoc1-c1nnc(SCCCN2C[C@@H]3C[C@]3(c3ccc4c(cnn4C)c3)C2)n1C (single isomer, unassigned) [Example 74 Enantiomer 1]	> 1	
Cc1ncoc1-c1nnc(SCCCN2C[C@@H]3C[C@]3(c3ccc(C(F)(F)F)cn3)C2)n1C (single isomer, unassigned) [Example 96 Enantiomer 2]	> 1	
Cc1ncoc1-c1nnc(SCCCN2C[C@@H]3C[C@]3(c3ccc(OC(F)(F)F)cc3)C2)n1C (single isomer, unassigned; enantiomer 1) [Example 30 Enantiomer 1]	> 1	
Cc1ncoc1-c1nnc(SCCCN2C[C@@H]3C[C@]3(c3cc(F)cc(C(F)(F)F)c3)C2)n1C (single isomer, unassigned; enantiomer 1) [Example 110 Enantiomer 1]	> 1	
Cc1ncoc1-c1nnc(SCCCN2C[C@@H]3C[C@]3(c3cccc(C(F)(F)F)c3F)C2)n1C (single isomer, unassigned; enantiomer 2) [Example 111 Enantiomer 2]	> 1	
Cc1ncoc1-c1nnc(SCCCN2C[C@@H]3C[C@]3(c3ccc(C(F)(F)F)cc3F)C2)n1C.O=C(O)[C@H](O)[C@@H](O)C(=O)O [Example 123, (1S,5R)-1-[2-Fluoro-4-(trifluoromethyl)phenyl]-3-(3-{[4-methyl-5-(4-methyl-1,3-oxazol-5-yl)-4H-1,2,4-triazol-3-yl]thio}propyl)-3-azabicyclo[3.1.0]hexane tartrate]		inhibitory effect in non-stressed animals, in respect to controls ([1]; 3 mg/kg i.p., result in words, tartrate): did not show any inhibitory effect; also recorded: No significant effects; Chow Intake after 4 h [1, 2]: 1.92 ± 0.66 kcal; HP Intake after 4 h [1, 2]: 8.73 ± 2.75 kcal; Total Food Intake after 4 h [1, 2]: 10.65 ± 2.75 kcal; Chow Intake after 4 h [1, 3]: 1.95 ± 0.58 kcal; HP Intake after 4 h [1, 3]: 17.11 ± 2.49 kcal; Total Food Intake after 4 h [1, 3]: 19.06 ± 2.44 kcal; Chow Intake after 4 h [1, 4]: 2.09 ± 0.74 kcal; HP Intake after 4 h [1, 4]: 14.44 ± 2.15 kcal; Total Food Intake after 4 h [1, 4]: 16.54 ± 1.94 kcal; Chow Intake after 4 h [1, 5]: 2.62 ± 0.79 kcal; HP Intake after 4 h [1, 5]: 8.89 ± 1.90 kcal; Total Food Intake after 4 h [1, 5]: 11.51 ± 1.99 kcal; effect on total Food Intake ([1]; S/R rats, highest dose of 3 mg/kg, 1-way ANOVA, result in words): significantly decreased total food intake; effect on HP intake ([1]; S/R rats, highest dose of 3 mg/kg, Dunnett's p<0.01, result in words): significantly decreased HP intake; effect on Chow intake ([1]; S/R rats, highest dose of 3 mg/kg, Dunnett's p<0.05, result in words): significantly decreased chow Intake; effect on stress-induced overeating ([1]; result in words): significant inhibitory effect on stress-induced overeating
